Laboratory results taken from PubChem BioAssay (NCI).
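Assay format: 96-well plates, 48-hour exposure. The concentration for full growth arrest is given as TGI.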

Legend:
Experiment in all cases: NCI tumour cell line growth inhibition, 48 h
[1] = system: 786-0 renal
[2] = system: A498 renal
[3] = system: A549 NSCLC
[4] = system: ACHN renal
[5] = system: CAKI-1 renal
[6] = system: CCRF-CEM leukemia
[7] = system: COLO 205 colon
[8] = system: DLD-1 colon
[9] = system: DMS 114 small cell lung
[10] = system: DMS 273 small cell lung
[11] = system: EKVX NSCLC
[12] = system: HCT-116 colon
[13] = system: HCT-15 colon
[14] = system: HL-60(TB) leukemia
[15] = system: HOP-18 NSCLC
[16] = system: HOP-62 NSCLC
[17] = system: HOP-92 NSCLC
[18] = system: HT29 colon
[19] = system: IGROV1 ovarian
[20] = system: K-562 leukemia
[21] = system: KM12 colon
[22] = system: KM20L2 colon
[23] = system: LOX IMVI melanoma
[24] = system: LXFL 529 NSCLC
[25] = system: M14 melanoma
[26] = system: M19-MEL melanoma
[27] = system: MALME-3M melanoma
[28] = system: MOLT-4 leukemia
[29] = system: NCI-H226 lung
[30] = system: NCI-H23 lung
[31] = system: NCI-H460 lung
[32] = system: NCI-H522 lung
[33] = system: OVCAR-3 ovarian
[34] = system: OVCAR-4 ovarian
[35] = system: OVCAR-5 ovarian
[36] = system: OVCAR-8 ovarian
[37] = system: RPMI-8226 leukemia
[38] = system: RXF 393 renal
[39] = system: RXF-631 renal
[40] = system: SF-268 CNS
[41] = system: SF-295 CNS
[42] = system: SF-539 CNS
[43] = system: SK-MEL-2 melanoma
[44] = system: SK-MEL-28 melanoma
[45] = system: SK-MEL-5 melanoma
[46] = system: SK-OV-3 ovarian
[47] = system: SN12C renal
[48] = system: SNB-19 CNS
[49] = system: SNB-75 CNS
[50] = system: SNB-78 CNS
[51] = system: SR leukemia
[52] = system: SW-620 colon
[53] = system: TK-10 renal
[54] = system: U251 CNS
[55] = system: UACC-257 melanoma
[56] = system: UACC-62 melanoma
[57] = system: UO-31 renal
[58] = system: XF 498 CNS

Measured: TGI

CC1(C)COC2(OC1)C1=NS(=O)(=O)CC13CCC2C3(C)C (stereo not drawn)
> 100 µM: all assays above
